According to patent publication US12590080B2, “Compounds” (PACKINAX PTY LTD, priority 2020, dated 2026):
“Also recorded” adds a separate entry of the source. Counter-ions that a name gives are not always drawn. Like-named read-outs stand apart in the source and are kept apart here. Blank lines part the entries; values can stand above or below the compound they belong to.

Columns and labels:
[1] = tested on: TB33117 (pancreatic cancer); assay: Cell proliferation, TB33117; type: cell-based, mouse
From the text: (§1) Pancreatic cancer cell lines MiaPaCa-2, PANC1 (human), TB33117 (mouse), and KPCWT833 were used to test the effect of Compound Ia on cell proliferation. PANC1 and TB33117 cell lines express high levels of PAK1 and PAK4, while MiaPaCa-2 cell has low levels of PAK1 and PAK4 (Yeo, 2014 and unpublished data). […] Compound Ia was also shown to inhibit colorectal cell line MC-38, brain glioblastoma cancer cell like U-87, melanoma cell line B16F1, liver cell line HepG2, and bile duct cancer cell line EIG-1 at low to sub-micromolar IC50 values.

[2] = tested on: MiaPaCa-2 (pancreatic cancer); assay: Cell proliferation, MiaPaCa-2; type: cell-based; conditions: Homo sapiens, MIA PaCa-2
From the text: as §1

[3] = tested on: PANC1 (pancreatic cancer); assay: Cell proliferation, PANC1; type: cell-based, human
From the text: as §1

[4] = tested on: KPCWT833 (pancreatic cancer); assay: Cell proliferation, KPCWT833; type: cell-based
From the text: as §1

PD-L1 = assay: Western blot of PD-L1 expression in DLD-1 cells; type: cell-based; conditions: DLD-1 cells, 0, 1, 10, 20, 50 μM, 24 h
Protocol: (§2) Cells from a colorectal cancer cell line (DLD-1) were incubated with Compound Ia (0, 1, 10, 20, 50 μM), or with compound PF-3758309 (500 nM) for 24 h. At the end of 24 h culture, the medium was removed from the cells, and the cells were washed once with PBS. The cells were lysed in SDS-sample buffer. The resultant cell lysates were subjected to 10% SDS-PAGE to separate the proteins with different molecular weights, which then were blotted with antibodies against PD-L1, PAK1, PAK4, α-SMA and GAPDH.

PAK4 = assay: Western blot of PAK4 expression in DLD-1 cells; type: cell-based; conditions: 24 h
Protocol: as §2

HepG2 (liver cancer) = assay: Cell proliferation, HepG2; type: cell-based; conditions: Homo sapiens
From the text: as §1

MC-38 (colon cancer) = assay: Cell proliferation, MC-38; type: cell-based; conditions: Mus musculus
From the text: as §1

PAK1 = PAK1 (Homo sapiens, UniProt Q13153); assay: Cell-free kinase assay, PAK1; type: biochemical
Sequence of PAK1 (Q13153 whole entry): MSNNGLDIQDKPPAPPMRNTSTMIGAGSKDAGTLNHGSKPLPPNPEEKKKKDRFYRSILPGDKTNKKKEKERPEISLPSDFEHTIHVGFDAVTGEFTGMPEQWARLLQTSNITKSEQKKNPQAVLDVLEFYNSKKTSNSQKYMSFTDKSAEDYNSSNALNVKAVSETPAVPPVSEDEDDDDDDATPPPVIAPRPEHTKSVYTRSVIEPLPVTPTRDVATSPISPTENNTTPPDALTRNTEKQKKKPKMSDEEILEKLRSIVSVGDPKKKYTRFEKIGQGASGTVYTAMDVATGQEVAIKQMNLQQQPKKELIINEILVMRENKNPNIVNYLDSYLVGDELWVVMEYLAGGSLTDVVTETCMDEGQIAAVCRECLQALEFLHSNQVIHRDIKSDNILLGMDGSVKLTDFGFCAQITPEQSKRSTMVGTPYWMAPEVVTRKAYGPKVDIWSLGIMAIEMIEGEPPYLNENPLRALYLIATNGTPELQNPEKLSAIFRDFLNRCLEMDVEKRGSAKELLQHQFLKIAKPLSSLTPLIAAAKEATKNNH

[5] = tested on: alpha smooth muscle actin (α-SMA); assay: Western blot of α-SMA expression in DLD-1 cells; type: cell-based; conditions: 24 h
Protocol: as §2

[6] = tested on: immunological biomarkers in tumour tissues; assay: Immunological biomarkers in tumour tissues by flow cytometry, syngeneic mouse models of pancreatic cancer; type: in vivo; conditions: combination with Gemcitabine
Protocol: The effects of Compound Ia on immunological biomarkers was assessed using syngeneic mouse models of pancreatic cancer.
Single cell suspension was made from tumour tissues isolated from mice treated with either gemcitabine alone or gemcitabine plus PAK227. The cell suspension was incubated with antibodies against CD45, CD4, CD8, B220, PD-L1, PD-1, CD11b and Ly6c, and then subjected to a flow-cytometry machine for cell number counting and percentage calculation.

U-87 (brain tumour) = assay: Cell proliferation, U-87; type: cell-based; conditions: Homo sapiens, U-87 MG
From the text: as §1

KPC833 cells = assay: In vivo efficacy in combination with Gemcitabine, subcutaneous KPC833 tumours in C57Bl6
CHEK2 = molecular target: T1, CHEK2 (Homo sapiens, UniProt O96017); assay: ADP-Glo kinase assay, CHEK2; type: biochemical
T1 construct: purchased Promega (Sydney, NSW, Australia)
T1 sequence (O96017 whole entry): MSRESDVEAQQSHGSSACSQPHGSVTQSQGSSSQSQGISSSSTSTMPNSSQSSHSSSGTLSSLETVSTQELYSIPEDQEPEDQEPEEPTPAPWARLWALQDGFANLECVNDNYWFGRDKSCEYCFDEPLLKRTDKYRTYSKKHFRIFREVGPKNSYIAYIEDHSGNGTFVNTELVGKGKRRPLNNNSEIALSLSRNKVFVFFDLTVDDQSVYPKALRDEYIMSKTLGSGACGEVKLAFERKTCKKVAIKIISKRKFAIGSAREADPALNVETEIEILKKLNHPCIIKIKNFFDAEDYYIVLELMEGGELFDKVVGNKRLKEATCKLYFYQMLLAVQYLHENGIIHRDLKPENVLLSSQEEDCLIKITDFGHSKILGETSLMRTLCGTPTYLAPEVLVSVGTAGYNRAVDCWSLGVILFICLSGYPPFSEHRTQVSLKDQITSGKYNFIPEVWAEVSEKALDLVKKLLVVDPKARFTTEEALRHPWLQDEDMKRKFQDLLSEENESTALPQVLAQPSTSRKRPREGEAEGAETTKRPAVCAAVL
Protocol: The effects of Compound Ia on CHEK2 kinase activity was assessed using an ADP-Glo kinase assay kit purchased from Promega (Sydney, NSW, Australia). The assay was undertaken in accordance with the manufacturer's instructions.

PAK4 kinase = PAK4 kinase (Homo sapiens, UniProt O96013); assay: Cell-free kinase assay, PAK4; type: biochemical; conditions: read-out: IC50, inhibition of PAK4 kinase
Sequence of PAK4 kinase (O96013 whole entry): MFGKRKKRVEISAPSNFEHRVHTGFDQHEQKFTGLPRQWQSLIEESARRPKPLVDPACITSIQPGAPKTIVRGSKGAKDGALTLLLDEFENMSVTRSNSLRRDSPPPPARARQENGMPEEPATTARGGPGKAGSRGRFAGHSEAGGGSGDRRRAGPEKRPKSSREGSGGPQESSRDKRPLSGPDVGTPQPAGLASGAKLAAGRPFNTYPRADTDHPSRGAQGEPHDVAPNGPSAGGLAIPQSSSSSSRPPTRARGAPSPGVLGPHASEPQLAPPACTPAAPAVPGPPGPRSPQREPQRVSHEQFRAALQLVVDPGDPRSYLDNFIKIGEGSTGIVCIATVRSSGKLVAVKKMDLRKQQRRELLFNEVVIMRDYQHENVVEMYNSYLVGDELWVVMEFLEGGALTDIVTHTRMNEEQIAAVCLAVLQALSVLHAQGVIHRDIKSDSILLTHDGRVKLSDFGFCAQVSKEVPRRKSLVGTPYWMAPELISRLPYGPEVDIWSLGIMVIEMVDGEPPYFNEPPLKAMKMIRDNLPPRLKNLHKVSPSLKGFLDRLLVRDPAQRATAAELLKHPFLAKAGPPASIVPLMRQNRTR

B16F10 (skin cancer) = assay: Cell proliferation, B16F10; type: cell-based; conditions: Mus musculus, B16-F10
[7] = tested on: EIG-1 (cholangiocarcinoma); assay: Cell proliferation, EIG-1; type: cell-based
From the text: as §1

[8] = Dissolution of the prodrug in ethanol/water; type: physicochemical; conditions: 67% ethanol in water solution

IC50 ([1]; Mus musculus): 805 nM
IC50 [2]: 87 nM
IC50 ([3]; Homo sapiens, PANC-1, PANC1): 500 nM
SMILES: Cc1nc(Nc2n[nH]c3c2CN(C(=O)N[C@H](CN(C)C)c2ccccc2)C3(C)C)c2sccc2n1 [PF3758309, reference compound]

SMILES: CNc1ncc(-c2ccc(Cc3c(Cl)cc(OC)cc3Cl)o2)cn1 [Compound Ia, 5-[5-[(2,6-dichloro-4-methoxyphenyl)methyl]furan-2-yl]-N-methylpyrimidin-2-amine]
IC50 [4]: 1230 ± 390 nM
IC50 [1]: 1000 to 2000 nM
IC50 ([1]; Mus musculus): 1720 nM
expression of PD-L1 (PD-L1): dose-dependently inhibited
expression of PD-L1 (PD-L1; listed as Compound Ta): reduced the expression of PD-L1 to a comparable level
expression of PAK4 (PAK4): reduced expression
IC50 (HepG2 (liver cancer)): 3760 ± 660 nM
IC50 [2]: 8290 nM
IC50 (MC-38 (colon cancer)): 460 ± 390 nM
effect on the kinase activity of PAK1 (PAK1): did not show significant effect
expression of alpha smooth muscle actin (α-SMA) [5]: reduced expression
expression of immunological biomarkers in tumour tissues compared to Gemcitabine alone [6]: increases the expression of immunological biomarkers; also recorded: increases various immunological biomarkers
IC50 (U-87 (brain tumour)): 6550 ± 3550 nM
toxicity (body weight) (KPC833 cells; combination with Gemcitabine): no body weight loss was observed
tumour volume compared to untreated control tumours (KPC833 cells; combination with Gemcitabine, 21 days and 31 days, 40 mg/Kg subcutaneous every other day): regression of pancreatic tumour growth
efficacy against advanced tumours compared to Gemcitabine alone (KPC833 cells; combination with Gemcitabine, tumour size=100 mm^3): improved efficacy
tumour volume over 21 days compared to gemcitabine alone (KPC833 cells; intra-tumour injection 10 mg/kg on day 1, followed by gemcitabine 50 mg/kg): decreased tumour volume
IC50 (CHEK2): 737 nM
IC50 (PAK4 kinase): 200 to 500 nM
IC50 (B16F10 (skin cancer)): 13300 nM
IC50 [7]: 4630 nM
IC50 ([3]; Homo sapiens, PANC-1, PANC1): 1110 nM
IC50 ([3]; PANC1): 1000 to 2000 nM

solubility in ethanol/water [8]: able to be dissolved
SMILES: COc1cc(Cl)c(Cc2ccc(-c3cnc(NC(=O)CN)nc3)o2)c(Cl)c1 [Compound Ic, 2-amino-N-(5-{5-[(2,6-dichloro-4-methoxyphenyl)methyl]furan-2-yl}pyrimidin-2-yl)acetamide hydrochloride]
